Assay results: patent US7678884B2, “Biologically active peptide and agent containing the same” (Seikagaku Corporation, priority 2003, dated 2010)
Ends that are not written are not given here.

Experiments:
PDL cells = test: Cell differentiation of PDL cells (alkaline phosphatase activity, Bessey-Lowry method); assay type: cell-based, human; settings: for ALP activity increasing effect on PDL cells relative to BMP2: at confluent state and one week after (FIG. 5, FIG. 6), comparison with BMP2
Text: PDL cells were isolated from a healthy premolar carefully extracted from a patient who visited a hospital to extract teeth for orthodontic treatment so that periodontal ligament should not be damaged as far as possible, and cultured. The extracted tooth was washed with sterilized physiological saline and phosphate-buffered saline (PBS, Nissui), and then periodontal ligament existing in ⅓ of the tooth root at the center was scraped off with a sharp knife. The pieces of periodontal ligament were transferred to a plastic plate and minced into small fragments using a round-blade knife. Tissue fragments were left standing in a plate having a diameter of 35 mm (FALCON) and cultured in Dulbecco's modified Eagle medium (DMEM, Nissui) containing antibiotics (100 U/ml of penicillin G, 100 μg/ml of streptomycin and 250 μg/ml of gentamicin) and 10% fetal bovine serum (FBS, EQUITECH-BIO) at 37° C. under 5% CO2. Then, cells released from the periodontal ligament tissue fragments were subcultured under the same conditions, and the 3rd to 5th generation cells were used for experiments. • (ii) Mouse-derived Osteoblasts
(§1) As an index of cell differentiation, alkaline phosphatase (ALP) activity of cells was determined. Cells were inoculated in a 24-well culture plate at a ratio of 5×10^3 cells/well, added with the peptide (a) at various concentrations and cultured in DMEM or αMEM containing 2% FBS. One week after the time point when the cells reached a confluent state, ALP activity was determined by the following enzymochemical method (Bessey-Lowry method, Bessey O A, Lowry O H and Brock M J, A method for the rapid determination of alkaline phosphatase with five cubic millimeter of serum, J. Biol. Chem., 164:321-329, 1946).
(§2) The cultured cells were washed with PBS and then disrupted in 10 mM Tris-HCl buffer (pH 7.4, 500 μl) for 40 seconds by using an ultrasonic homogenizer (Handy Sonic model UR-20P, Tomy Seiko) and stirred. Then, 25 μl of this sample liquid was added to 125 μl of ALP buffer (0.1 M carbonate buffer, pH 9.8, 6.7 mM p-nitrophenyl phosphate, 2 mM MgCl2) and incubated at 37° C. for 30 minutes. The reaction was terminated by addition of 125 μl of 0.2 N NaOH, and absorbance was measured at 405 nm by using a microplate reader (Model 550, Bio-Rad Laboratories).
Further, the ALP activity in DMEM containing 2% FBS and DMEM or αMEM containing 2% FBS added with peptide (c) at various concentrations was also similarly examined. The symbol “cont” in FIG. 4 indicates the results for the cells cultured in DMEM containing 2% FBS alone, “PN” indicates the results for the cells cultured in the medium added only with the peptide (a), and “PC” indicates the results for the cells cultured in the medium added only with the peptide (c). In FIG. 4, “pg” and “ng” represent “pg/ml” and “ng/ml,” respectively.
Further, in addition to the peptide (a) (derived from swine), the human-derived peptide (b) and BMP were similarly examined. The results of ALP activity measurement performed when the cells reached a confluent state are shown in FIG. 5, and the results of ALP activity measurement performed one week after the confluent state was attained are shown in FIG. 6. The symbol “cont” in the figures indicates the results for the cells cultured in DMEM containing 2% FBS alone, “B” indicates the results for the cells cultured in the medium added only with BMP2, “PN” indicates the results for the cells cultured in the medium added only with the peptide (a), and “HN” indicates the results for the cells cultured in the medium added only with the peptide (b) In the figures, the unit of numerical values shown after “B,” “PN” and “HN” is “ng/ml.”

ST2 cells = test: Cell differentiation of ST2 cells (ALP activity); assay type: cell-based, mouse; settings: for cell differentiation promoting effect on ST2 cells relative to BMP2: at confluent state (FIG. 7), comparison with BMP2; for cell differentiation promoting effect (ALP activity) on ST2 cells: at confluent state, αMEM containing 2% FBS (FIG. 7)
Procedure: As mouse-derived osteoblasts, cells of the MC3T3 cell strain or ST2 cell strain (purchased from Riken Cell Bank) were used. • (iii) Rat Femur Bone Marrow-derived Mesenchymal Stem Cells (BMMSC)
as §1, §2
Further, the peptides (a) and (b) and BMP2 were similarly examined by using the ST2 cells and BMMSC cells. The symbol “cont” in the figures indicates the results for the cells cultured in αMEM containing 2% FBS alone, “B” indicates the results for the cells cultured in the medium added only with BMP2, “HN” indicates the results for the cells cultured in the medium added only with the peptide (b), and “PN” indicates the results for the cells cultured in the medium added only with the peptide (a). In the figures, the unit of numerical values shown after “B,” “HN” and “PN” is “ng/ml.”
Further, the peptides (b) and (k) to (n) were similarly examined at a final concentration of 100 ng/ml by using the ST2 cell strain. The symbol “cont” in the figure indicates the results for the cells cultured in DMEM containing 2% FBS alone.

bone loss model = test: Bone loss model (tibia defect, soft X-ray); assay type: in vivo, Wistar rats; settings: for bone regeneration at the bone loss site (X-ray): peptide 3 mg/ml with collagen gel (Koken Atelocollagen Implant), versus control and collagen gel groups
Procedure: The following experiment was performed in order to examine action of the peptide of the present invention on a bone loss model. • (i) Preparation of Bone Loss Model Male Wistar rats (8-week old) were systemically anesthetized with an ethyl carbamate solution in a volume of 0.5 ml per 100 g of body weight, then the skin of the right and left hind leg tibiae and the periostium of tibiae were incised, and the periostium were reflected to expose the tibiae. Then, a hole having a diameter of 2 mm was perforated in the cortical bone at the same site by using a round bur under pouring physiological saline to form a defect reaching the medullary cavity (diameter: 2 mm, depth: 3 mm). • (ii) Test Method The bone loss site was filled with the peptide (a) (concentration: 0.3 mg/ml or 3 mg/ml) dissolved in a sodium hyaluronate preparation (trade name: ARTZ (registered trade mark), weight average molecular weight of sodium hyaluronate: about 900,000, concentration of sodium hyaluronate: 1%), and the periost and the skin were repositioned and sutured. Healing conditions of the animals 3 weeks after the operation in a group of animals filled with the peptide (peptide group), a group of animals applied with 1% PBS solution of sodium hyaluronate as a vehicle alone (HA group) and a group of animals applied with no substance before the suture of the skin periosteal flap (control group) were examined by using X-ray. • (iii) Results In a similar manner, experiments were performed with collagen gel (trade name: Koken Atelocollagen Implant, Koken) and the peptides (a) and (b) (concentration: 3 mg/ml).

[1] = measured at confluent state and one week after (FIG. 5, FIG. 6), versus control

Row | Sequence | ALP activity increasing effect on PDL cells relative to BMP2 (PDL cells) | ALP activity of the PDL cells (PDL cells; [1]) | cell differentiation promoting effect on ST2 cells relative to BMP2 (ST2 cells) | cell differentiation promoting effect (ALP activity) on ST2 cells (ST2 cells) | bone regeneration at the bone loss site (X-ray) (bone loss model) | ALP activity of the PDL cells (PDL cells; peptide at various concentrations, 2% FBS medium, one week after confluent state, versus control (FIG. 4)) | bone regeneration at the bone loss site (soft X-ray images) (bone loss model; peptide (a) 0.3 mg/ml or 3 mg/ml in 1% sodium hyaluronate preparation (ARTZ), 3 weeks after operation, versus control and HA groups)
1 | VPFFPQQSGTPGMASL [Peptide (b), peptide designed on the portion of human-derived sheathlin protein corresponding to (a)] | comparable to or higher than that of BMP2 | significantly increased | comparable to or higher than that of BMP2 | significant cell differentiation promoting effect | bone had been regenerated to such an extent that bone loss could hardly be recognized |  | 
2 | VPAFPRQPGTPGVASL [Peptide (a)] | comparable to or higher than that of BMP2 | significantly increased | comparable to or higher than that of BMP2 | significant cell differentiation promoting effect | bone had been regenerated to such an extent that bone loss could hardly be recognized | significantly increased | bone had been regenerated to such an extent that bone loss could hardly be recognized
